Results reported in patent US20140371244A1, “METHOD FOR TREATING PROSTATE CANCER BY USE OF PHARMACEUTICAL COMPOSITION CONTAINING A3 ADENOSINE RECEPTOR AGONIST” (priority 2009, published 2014).

How the values were obtained:
[1] = test system: human colorectal cancer HCT 116 cells; test: Anticancer activity in nude mice transplanted with HCT 116 cells; assay type: in vivo, nude mice (Balb/c-nu/nu mice)
Experimental: HCT 116 cells were prepared at a concentration of 2×10^6 cells/200 μl (RPMI) and administered subcutaneously into the right frank of 6-week-old female nude mice (Balb/c-nu/nu mice). The tumor size was measured with calipers, and the tumor size reached about 100 mm^3, 20 mice having substantially the same tumor size were divided into a control group and three sample-treated groups. The three sample-treated group were administered orally with IB-MECA at doses of 0.02, 0.2 and 2 mg/kg, respectively, for 21 days. In the control group and the sample-treated groups, the bodyweight was measured once every week, and the tumor size was measured at intervals of 3-4 days. The tumor volume was measured using equation 3 above. In the equation, a represents the longer diameter of the tumor, b represents the shorter diameter of the tumor, and c represents the height of the tumor.
Anticancer activity was measured by an animal test in the same manner as Example 20, except that 6-week-old female nude mice were administered with Cl-IB-MECA in place of IB-MECA as a sample.
Anticancer activity was measured by an animal test in the same manner as Example 20, except that 6-week-old female nude mice were administered with thio-Cl-IB-MECA in place of IB-MECA as a sample.

[2] = test system: human colorectal cancer HCT 116 cells; test: SRB assay, growth of HCT 116 cells; assay type: cell-based; details: 72 hours
Experimental: In order to compare the inhibitory effect of thio-Cl-IB-MECA of the present invention on the inhibition of human colorectal cancer HCT 116 cells with the effects of other A3 adenosine receptor agonists, IB-MECA and Cl-IB-MECA, a sulforhodamine B (SRB) assay was performed.
Specifically, 10 μL of a solution of thio-Cl-IB-MECA in 10% dimethylsulfoxide (DMSO) was loaded in each well of a 96-well plate in triplicate at concentrations of 100, 50, 25 and 12.5 μM, thus making a test plate. Cells were diluted to a density of 5×10^4 cells/ml with 10% FBS-containing RPMI 1640 medium supplemented with antibiotics-antimycotics, and 190 μL of the cell suspension was added to each well so as to reach a total volume of 200 μL and was cultured in a 5% CO2 incubator at 37° C. for 3 days. At the same time, 190 μL of the same cell suspension was loaded into each of 16 wells or more of a fresh 96-well plate containing no sample (thio-Cl-IB-MECA) and was cultured in a 5% CO2 incubator at 37° C. for 30 minutes, thereby determining reference date. After the culture, 50 μL of 50% trichloroacetic acid (TCA) was added to each well, and the cells were fixed by culture at 4° C. for 1 hour. Then, the well plate was washed five times with tap water and dried. 100 μL of a 1% acetic acid solution containing […] sulforhodamine B (SRB) was added to each well to stain the cells, and the well plate was allowed to stand at room temperature for 1 hour. After the well plate has been washed five times with 1% acetic acid and sufficiently dried, 200 μL of 100 mM Tris-base was added to each well, and the bound staining liquid was dissolved and sufficiently shaken in a shaker. Then, the absorbance at 515 nm was measured using an ELISA microplate reader. Based on the measured absorbance, the cell viability of the test group relative to the control group was calculated using equation 2 above. Based on the viability at each concentration, the IC50 value of the test sample was calculated using TableCurve program.
In the cases of IB-MECA or Cl-IB-MECA, the viability of cancer cells was examined in the same manner as the case of thio-Cl-IB-MECA.

[3] = test system: prostate cancer cell line PC-3; test: Anticancer activity in PC-3 tumor-transplanted nude mice; assay type: in vivo; details: 2 mg/kg orally every day for 35 days
Experimental: Based on the anticancer activity of thio-Cl-IB-MECA against prostate cancer cells, proven by the in vitro test, the anticancer activity of thio-Cl-IB-MECA was measured by an animal test. The prostate cancer cell line PC-3 was transplanted subcutaneously into nude mice, and when the tumor size reached 150-200 mm^3 after 8 days, the drug thio-Cl-IB-MECA (0.02, 0.2 and 2 mg/kg), thio-IB-MECA (2 mg/kg) or IB-MECA (2 mg/kg) was administered orally every day for 35 days. The tumor size was measured at intervals of 3-5 days. The tumor volume was measured using the following equation 3.
Tumor volume=abc×π/6 [Equation 3]
wherein a represents the longer diameter of the tumor, b represents the shorter diameter of the tumor, and c represents the height of the tumor.

ICR white mice = test: Animal toxicity test, single oral dose; assay type: in vivo; details: mouse, in vivo, po
Experimental: In order to examine the toxicities of thio-Cl-IB-MECA and thio-IB-MECA, each of the compounds was administered orally to ICR white mice (n=10, 25 g) at a dose of 1500 mg/kg weight, and the behavioral change and state of the mice were observed.

SMILES | inhibition rate of tumor growth ([1]; 0.02 mg/kg orally for 21 days) [%] | inhibition rate of tumor growth ([1]; 0.2 mg/kg orally for 21 days) [%] | inhibition rate of tumor growth ([1]; 2 mg/kg orally for 21 days) [%] | side effects (such as a change in bodyweight) during the test period ([1]; 0.02, 0.2 and 2 mg/kg orally for 21 days) | growth of HCT 116 cells ([2]; 100, 50, 25 and 12.5 μM) | IC50 ([2]; SRB) [µM] | tumor production inhibitory activity relative to the control group [3] | maximum tolerance dose (MTD) (ICR white mice) | survival and side effects up to 7 days after administration (ICR white mice; 1500 mg/kg)
CNC(=O)[C@H]1O[C@@H](n2cnc3c(NCc4cccc(I)c4)nc(Cl)nc32)[C@H](O)[C@@H]1O [Cl-IB-MECA] | 18.2 | 43.8 | 67.3 | survived healthfully without particular side effects | concentration-dependently inhibited the growth | 19.3 |  |  | 
CNC(=O)[C@H]1S[C@@H](n2cnc3c(NCc4cccc(I)c4)ncnc32)[C@H](O)[C@@H]1O [thio-IB-MECA, N^6-(3-iodobenzyl)-4′-thioadenosine-5′-N-methyluronamide] |  |  |  |  |  |  | about 53.6% | more than 1500 mg/kg | survived healthfully without particular side effects
